Measured values taken from the NIST ThermoML archive (doi:10.1021/je1003466).
“And” between values parts separate entries of the source, which are not always exact repeats. Identical values can stand only once.

Test: mn = molality of the nth substance listed, in mol/kg
Conditions: 298.15 K, 101 kPa, Liquid

CNC=O [N-methylformamide] + O
Conditions	mass density
m1 = 0.1996	997.54 kg/m3
m1 = 0.2	997.53 kg/m3 and 997.55 kg/m3
m1 = 0.3493	997.91 kg/m3
m1 = 0.5018	998.28 kg/m3
m1 = 0.5044	998.28 kg/m3
m1 = 0.5343	998.34 kg/m3
m1 = 0.9779	999.42 kg/m3
m1 = 0.9919	999.46 kg/m3
m1 = 1.011	999.49 kg/m3
m1 = 1.499	1000.63 kg/m3
m1 = 1.5	1000.62 kg/m3
m1 = 1.505	1000.65 kg/m3
m1 = 2.006	1001.79 kg/m3
m1 = 2.011	1001.79 kg/m3
m1 = 2.012	1001.79 kg/m3
m1 = 2.47	1002.77 kg/m3
m1 = 2.497	1002.77 kg/m3
m1 = 2.513	1002.86 kg/m3
m1 = 3.022	1003.9 kg/m3
m1 = 3.05	1003.95 kg/m3
m1 = 3.068	1004 kg/m3
m1 = 3.496	1004.81 kg/m3
m1 = 3.499	1004.82 kg/m3 and 1004.81 kg/m3
m1 = 3.989	1005.73 kg/m3
m1 = 3.992	1005.74 kg/m3
m1 = 3.997	1005.73 kg/m3
